Results published in patent publication US20150011466A1, “APJ Receptor Compounds” (priority 2012, published 2015).
Where a SMILES comes first, the peptide text is derived from it. [ ]: non-standard residue; d: D form. The star is where a group is joined. Palmitoyl = CCCCCCCCCCCCCCCC(=O)*; Aib = CC(C)(N)C(=O)O

Key:
[1] = Histimine (% vs. 48/40)
[2] = biological target: T1, APJ receptor (Homo sapiens, UniProt P35414); experiment: HTRF cAMP assay, inhibition of NKH477 stimulated cAMP in Human TRex cells expressing APJ upon doxycycline induction (APJ-hTREX); format: cell-based; conditions: for percent intrinsic activity at 0.3 µM: read-out: % IA (@ 300 nM)
T1 construct: expressed in transfected cells; host or cells: Human TRex cells (doxycycline-inducible)
T1 sequence (P35414 1-380): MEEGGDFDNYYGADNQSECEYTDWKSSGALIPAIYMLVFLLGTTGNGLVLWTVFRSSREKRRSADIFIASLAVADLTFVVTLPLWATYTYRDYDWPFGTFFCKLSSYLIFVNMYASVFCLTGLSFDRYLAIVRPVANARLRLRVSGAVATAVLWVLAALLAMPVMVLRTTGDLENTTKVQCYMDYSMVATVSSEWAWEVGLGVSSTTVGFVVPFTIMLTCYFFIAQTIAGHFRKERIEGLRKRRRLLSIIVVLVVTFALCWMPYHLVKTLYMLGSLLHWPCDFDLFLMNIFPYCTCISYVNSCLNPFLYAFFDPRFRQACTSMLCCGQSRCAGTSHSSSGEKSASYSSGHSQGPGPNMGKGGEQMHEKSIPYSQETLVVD
Excerpt: HTRF (homogeneous time resolved fluorescence) is a technology developed by Cisbio Bioassays based on TR-FRET (time-resolved fluorescence resonance energy transfer). Cisbio Bioassays has developed a wide selection of HTRF-based assays compatible with whole cells, thereby enabling functional assays to run under more physiological conditions. The IP-One assays are competitive immunoassays using cryptate-labeled anti-IP1 monoclonal antibody and d2-labeled IP1. IP1 is a relatively stable downstream metabolite of IP3, and accumulates in cells following Gq receptor activation.
cAMP kits based on a competitive immunoassay using cryptate-labeled anti-cAMP antibody and d2-labeled cAMP were used to assay the effects of APJ compounds of the present invention. […] Cells are treated with […] doxycycline and seeded in all white 96 well plates @ 40 k/well overnight.

Structure (SMILES) | Histimine (% vs. 48/40) [1] | percent intrinsic activity at 0.3 µM [2] | EC50 [2] | Ranking ([2]; class combining EC50 and % histamine)
CCCCCCCCCCCCCCCC(=O)N[C@@H](CC(=O)O)C(=O)N[C@H](C(=O)N[C@@H](Cc1ccccc1)C(=O)N[C@@H](CCCNC(=N)N)C(=O)N[C@@H](CO)C(=O)N[C@@H](CO)C(=O)N[C@@H](CCC(=O)O)C(=O)N[C@H](CCCCN)C(=O)N[C@@H](CCCNC(=N)N)C(=O)N[C@@H](CCCNC(=N)N)C(=O)N[C@@H](CO)C(=O)N[C@@H](C)C(=O)N[C@@H](CC(=O)O)C(=O)N[C@H](C(=O)N[C@@H](Cc1ccccc1)C(=O)N[C@H](C(N)=O)[C@@H](C)CC)[C@@H](C)CC)C(C)C [Compound 33] (Palmitoyl-DVFRSSE[dK]RRSADIFI-NH2; C-terminus assumed) | 11% | 61% | 107 nM | **** (EC50 101-500 nM and % histamine<35%)
CCCCCCCCCCCCCCCC(=O)N[C@H](C(=O)N[C@H](C(=O)N[C@@H](Cc1ccccc1)C(=O)N[C@@H](CCCNC(=N)N)C(=O)N[C@@H](CO)C(=O)N[C@@H](CO)C(=O)N[C@@H](CCC(=O)O)C(=O)N[C@H](CCCCN)C(=O)N[C@@H](CCCNC(=N)N)C(=O)N[C@@H](CCCNC(=N)N)C(=O)N[C@@H](CO)C(=O)N[C@@H](C)C(=O)N[C@@H](CC(=O)O)C(=O)N[C@H](C(=O)N[C@@H](Cc1ccccc1)C(=O)N[C@@H](Cc1c[nH]cn1)C(N)=O)[C@@H](C)CC)C(C)C)[C@@H](C)O [Compound 19] (Palmitoyl-TVFRSSE[dK]RRSADIFH-NH2) | 104% | 53% | – | –
CCCCCCCCCCCCCCCC(=O)N[C@H](C(=O)N[C@H](C(=O)N[C@@H](Cc1ccccc1)C(=O)N[C@@H](CCCNC(=N)N)C(=O)N[C@@H](CO)C(=O)N[C@@H](CO)C(=O)N[C@@H](CCC(=O)O)C(=O)N[C@H](CCCCN)C(=O)N[C@@H](CCCNC(=N)N)C(=O)N[C@@H](CCCNC(=N)N)C(=O)N[C@@H](CO)C(=O)N[C@@H](C)C(=O)N[C@@H](CCC(N)=O)C(=O)N[C@H](C(=O)N[C@@H](Cc1ccccc1)C(=O)N[C@H](C(N)=O)[C@@H](C)CC)[C@@H](C)CC)C(C)C)[C@@H](C)O [Compound 29] (Palmitoyl-TVFRSSE[dK]RRSAQIFI-NH2) | 92% | 9% | – | –
CCCCCCCCCCCCCCCC(=O)N[C@H](C(=O)N[C@H](C(=O)N[C@@H](Cc1ccccc1)C(=O)N[C@@H](CCCNC(=N)N)C(=O)N[C@@H](CCC(N)=O)C(=O)N[C@@H](CO)C(=O)N[C@@H](CCC(=O)O)C(=O)N[C@H](CCCCN)C(=O)N[C@@H](CCCNC(=N)N)C(=O)N[C@@H](CCCNC(=N)N)C(=O)N[C@@H](CO)C(=O)N[C@@H](C)C(=O)N[C@@H](CC(=O)O)C(=O)N[C@H](C(=O)N[C@@H](Cc1ccccc1)C(=O)N[C@H](C(N)=O)[C@@H](C)CC)[C@@H](C)CC)C(C)C)[C@@H](C)O [Compound 23] (Palmitoyl-TVFRQSE[dK]RRSADIFI-NH2) | – | 55% | – | –
CCCCCCCCCCCCCCCC(=O)N[C@H](C(=O)N[C@H](C(=O)N[C@@H](Cc1ccccc1)C(=O)N[C@@H](CCCNC(=N)N)C(=O)N[C@@H](CO)C(=O)N[C@@H](CO)C(=O)N[C@@H](Cc1c[nH]cn1)C(=O)N[C@H](CCCCN)C(=O)N[C@@H](CCCNC(=N)N)C(=O)N[C@@H](CCCNC(=N)N)C(=O)N[C@@H](CO)C(=O)N[C@@H](C)C(=O)N[C@@H](CC(=O)O)C(=O)N[C@H](C(=O)N[C@@H](Cc1ccccc1)C(=O)N[C@H](C(N)=O)[C@@H](C)CC)[C@@H](C)CC)C(C)C)[C@@H](C)O [Compound 12] (Palmitoyl-TVFRSSH[dK]RRSADIFI-NH2) | – | 73% | – | –
CCCCCCCCCCCCCCCC(=O)N[C@H](C(=O)N[C@H](C(=O)N[C@@H](Cc1ccccc1)C(=O)N[C@@H](CCC(N)=O)C(=O)N[C@@H](CO)C(=O)N[C@@H](CO)C(=O)N[C@@H](CCC(=O)O)C(=O)N[C@H](CCCCN)C(=O)N[C@@H](CCCNC(=N)N)C(=O)N[C@@H](CCCNC(=N)N)C(=O)N[C@@H](CO)C(=O)N[C@@H](C)C(=O)N[C@@H](CC(=O)O)C(=O)N[C@H](C(=O)N[C@@H](Cc1ccccc1)C(=O)N[C@H](C(N)=O)[C@@H](C)CC)[C@@H](C)CC)C(C)C)[C@@H](C)O [Compound 22] (Palmitoyl-TVFQSSE[dK]RRSADIFI-NH2) | – | 59% | – | –
CCCCCCCCCCCCCCCC(=O)N[C@H](C(=O)N[C@H](C(=O)N[C@@H](Cc1ccccc1)C(=O)N[C@@H](CCCNC(=N)N)C(=O)N[C@@H](CO)C(=O)N[C@@H](CO)C(=O)N[C@@H](CCC(=O)O)C(=O)N[C@H](CCCCN)C(=O)N[C@@H](Cc1c[nH]cn1)C(=O)N[C@@H](CCCNC(=N)N)C(=O)N[C@@H](CO)C(=O)N[C@@H](C)C(=O)N[C@@H](CC(=O)O)C(=O)N[C@H](C(=O)N[C@@H](Cc1ccccc1)C(=O)N[C@H](C(N)=O)[C@@H](C)CC)[C@@H](C)CC)C(C)C)[C@@H](C)O [Compound 13] (Palmitoyl-TVFRSSE[dK]HRSADIFI-NH2) | – | 56% | – | –
CCCCCCCCCCCCCCCC(=O)N[C@H](C(=O)N[C@H](C(=O)N[C@@H](Cc1ccccc1)C(=O)N[C@@H](CCCNC(=N)N)C(=O)N1CCC[C@H]1C(=O)N[C@@H](CO)C(=O)N[C@@H](CCC(=O)O)C(=O)N[C@H](CCCCN)C(=O)N[C@@H](CCCNC(=N)N)C(=O)N[C@@H](CCCNC(=N)N)C(=O)N[C@@H](CO)C(=O)N[C@@H](C)C(=O)N[C@@H](CC(=O)O)C(=O)N[C@H](C(=O)N[C@@H](Cc1ccccc1)C(=O)N[C@H](C(N)=O)[C@@H](C)CC)[C@@H](C)CC)C(C)C)[C@@H](C)O [Compound 45] (Palmitoyl-TVFRPSE[dK]RRSADIFI-NH2) | – | 70% | – | –

Now from value to compound, other results behind:

Histimine (% vs. 48/40) [1] | percent intrinsic activity at 0.3 µM [2] | Structure (SMILES) | EC50 [2] | Ranking ([2]; class combining EC50 and % histamine)
86% | 61% | CCCCCCCCCCCCCCCC(=O)N[C@H](C(=O)N[C@H](C(=O)N[C@@H](Cc1ccccc1)C(=O)N[C@@H](CCCNC(=N)N)C(=O)N[C@@H](CO)C(=O)N[C@@H](CO)C(=O)N[C@@H](CCC(=O)O)C(=O)N[C@H](CCCCN)C(=O)N[C@@H](CCCNC(=N)N)C(=O)N[C@@H](CCCNC(=N)N)C(=O)NC(C)(C)C(=O)N[C@@H](C)C(=O)N[C@@H](CC(=O)O)C(=O)N[C@H](C(=O)N[C@@H](Cc1ccccc1)C(=O)N[C@H](C(N)=O)[C@@H](C)CC)[C@@H](C)CC)C(C)C)[C@@H](C)O [Compound 63, TVFRSSEkRR(Aib)ADIFI] (Palmitoyl-TVFRSSE[dK]RR[Aib]ADIFI-NH2) | – | –
– | 67% | CCCCCCCCCCCCCCCC(=O)N[C@H](C(=O)N[C@H](C(=O)N[C@@H](Cc1ccccc1)C(=O)N[C@@H](CCCNC(=N)N)C(=O)N[C@@H](CO)C(=O)NCC(=O)N[C@@H](CCC(=O)O)C(=O)N[C@H](CCCCN)C(=O)N[C@@H](CCCNC(=N)N)C(=O)N[C@@H](CCCNC(=N)N)C(=O)N[C@@H](CO)C(=O)N[C@@H](C)C(=O)N[C@@H](CC(=O)O)C(=O)N[C@H](C(=O)N[C@@H](Cc1ccccc1)C(=O)N[C@H](C(N)=O)[C@@H](C)CC)[C@@H](C)CC)C(C)C)[C@@H](C)O [Compound 73] (Palmitoyl-TVFRSGE[dK]RRSADIFI-NH2) | – | –
– | 66% | CCCCCCCCCCCCCCCC(=O)N[C@H](C(=O)N[C@H](C(=O)N[C@@H](Cc1ccccc1)C(=O)N[C@@H](CCCNC(=N)N)C(=O)N[C@@H](CO)C(=O)NC(C)(C)C(=O)N[C@@H](CCC(=O)O)C(=O)N[C@H](CCCCN)C(=O)N[C@@H](CCCNC(=N)N)C(=O)N[C@@H](CCCNC(=N)N)C(=O)N[C@@H](CO)C(=O)N[C@@H](C)C(=O)N[C@@H](CC(=O)O)C(=O)N[C@H](C(=O)N[C@@H](Cc1ccccc1)C(=O)N[C@H](C(N)=O)[C@@H](C)CC)[C@@H](C)CC)C(C)C)[C@@H](C)O [Compound 59] (Palmitoyl-TVFRS[Aib]E[dK]RRSADIFI-NH2) | – | –
